From paper PMC5440646, “T Cell Costimulation by CD6 Is Dependent on Bivalent Binding of a GADS/SLP-76 Complex” (Molecular and Cellular Biology, 2017) come the findings set out here.

Read-outs that look alike come from different tables or passages of the source. Where a SMILES comes first, the peptide text is derived from it. Where no end group is shown, it is not given here. [ ]: non-standard residue; d: D form. The star is where a group is joined. Biotin = O=C1N[C@H]2[C@H](CS[C@H]2CCCCC(=O)*)N1; pY = N[C@@H](Cc1ccc(OP(=O)(O)O)cc1)C(=O)O

Assay [1] deals with T1, SLP-76 SH2 (Homo sapiens, UniProt Q13094).
T1 construct: 2-fold serial dilutions of GADS (10 μM) (A) and SLP-76 (20 μM) (B) SH2 domains over the long CD6 peptides; His tag; made in house; host or cells: Escherichia coli Rosetta(DE3)/pLysS
T1 sequence (Q13094 422-530 limits assumed): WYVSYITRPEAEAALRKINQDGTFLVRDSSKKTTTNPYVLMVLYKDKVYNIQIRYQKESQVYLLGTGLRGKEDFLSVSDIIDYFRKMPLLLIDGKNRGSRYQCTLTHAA
Nature of the assay: SPR equilibrium binding of recombinant SLP-76 SH2 domain to immobilized long CD6 peptides. The following applies: 37°C; for Kd: equilibrium binding of soluble recombinant SH2 domain to immobilized long CD6 peptides (~50 RU), range, n = 3. The text has this: SPR analysis with long peptides containing both Y629 and Y662 phosphorylated at either or both tyrosine residues confirmed the specificity of the SH2 domains of GADS and SLP-76 for the CD6 Y629 and Y662 motifs, respectively (Fig. 3 and Table 3). […] Coprecipitation of GADS with CD6 was not observed in Jurkat (J14) cells, which lack SLP-76 (data not shown). GADS and SLP-76 interact with each other independently of their SH2 domains. A GADS SH3 domain binds to a proline-rich region of SLP-76 ([15]). This configuration means that both SH2 domains are available for bivalent binding to two phosphorylated tyrosine residues in close proximity. CD6 Y629 is the closest tyrosine residue to CD6 Y662 in the linear amino acid sequence of the cytoplasmic region.
(§1) Recombinant His-tagged SH2 domains of GADS, GRB2, and TSAd in the popinF vector (provided by Louis Bird, Oxford Protein Production Facility, Harwell, Oxfordshire, UK) and SLP-76 ([1]) were expressed in Escherichia coli Rosetta(DE3)/pLysS competent cells (Novagen) and purified by nickel affinity chromatography and size exclusion chromatography. Peptides for CD6 pY662 (biotin-[…]pYDDISAA), CD6 Y629 (biotin-[…]), CD6 pY629 (biotin-SSGEWpYQNFQP), and CD28 pYMNM (biotin-LLHSDpYMNMTP) were immobilized at ∼25 response units on streptavidin-coated CM5 chips in a BIAcore 3000 machine (Peptide Protein Research Ltd., Hampshire, UK) ([1], [14]). Long CD6 peptides (biotin-[…]pYDDISAA) phosphorylated at Y629 (pY629), Y662 (pY662), or both (pY629 pY662) were immobilized at ∼50 response units. Serially diluted proteins were injected over the chip at 10 μl/min at 37°C. Background signals of proteins over a streptavidin-coated flow cell were subtracted, equilibrium binding data were plotted, and KDs for 1:1 Langmuir binding were determined.

The target of assay [2] is T2, GADS SH2 (Homo sapiens, UniProt O75791).
T2 construct: Recombinant His-tagged SH2 domains of GADS, GRB2, and TSAd in the popinF vector; His tag; made in house; host or cells: Escherichia coli Rosetta(DE3)/pLysS
T2 sequence (O75791 58-149 limits assumed): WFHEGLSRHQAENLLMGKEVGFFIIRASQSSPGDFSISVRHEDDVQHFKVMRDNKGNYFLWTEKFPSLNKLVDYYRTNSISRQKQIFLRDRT
Nature of the assay: SPR equilibrium binding of recombinant GADS SH2 domain to immobilized phosphopeptides. The settings on record: 37°C.
Source text: (§2) We measured the direct binding of purified monomeric SH2 domains to the phosphorylated CD6 Y629 peptide at physiological temperature using surface plasmon resonance (SPR) (Fig. 1). The sensorgram traces for all three proteins binding to phosphorylated CD6 Y629 are consistent with monomeric binding of all three proteins (Fig. 1, right). Equilibrium binding data were plotted to determine dissociation constants (KDs) (Fig. 1, left). GADS and GRB2 bound with similar KDs to phosphorylated Y629, at 1 to 3 μM and 2 to 4 μM, respectively (Fig. 1A and B and Table 2). As an indication that the recombinant proteins were active, the SH2 domains of GADS and GRB2 bound to a phosphorylated CD28-derived peptide containing the YXN motif with an affinity (KD = 2 to 3 μM) similar to that determined by previous measurements (Fig. 1 and Table 2) ([14]).
as §1

Assay [3] addresses T3, GRB2 SH2 (Homo sapiens, UniProt P62993).
T3 construct: Recombinant His-tagged SH2 domains of GADS, GRB2, and TSAd in the popinF vector; His tag; made in house; host or cells: Escherichia coli Rosetta(DE3)/pLysS
Nature of the assay: SPR equilibrium binding of recombinant GRB2 SH2 domain to immobilized phosphopeptides. The following applies: 37°C.
Source text: as §2, §1

The target of assay [4] is T4, TSAd SH2 (Homo sapiens, UniProt Q9NP31).
T4 construct: Recombinant His-tagged SH2 domains of GADS, GRB2, and TSAd in the popinF vector; His tag; made in house; host or cells: Escherichia coli Rosetta(DE3)/pLysS
T4 sequence (Q9NP31 95-186 limits assumed): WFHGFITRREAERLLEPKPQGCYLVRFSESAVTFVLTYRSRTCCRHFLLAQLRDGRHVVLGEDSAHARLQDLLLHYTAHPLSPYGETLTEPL
Nature of the assay: SPR equilibrium binding of recombinant TSAd SH2 domain to immobilized phosphopeptides. The settings on record: equilibrium binding of soluble recombinant SH2 domain to immobilized biotinylated peptide, 37°C, 1:1 Langmuir, range, n = 3 (CD28 pYMN: n = 1).
Source text: as §2
Recombinant His-tagged SH2 domains of GADS, GRB2, and TSAd in the popinF vector (provided by Louis Bird, Oxford Protein Production Facility, Harwell, Oxfordshire, UK) and SLP-76 ([1]) were expressed in Escherichia coli Rosetta(DE3)/pLysS competent cells (Novagen) and purified by nickel affinity chromatography and size exclusion chromatography. […] Background signals of proteins over a streptavidin-coated flow cell were subtracted, equilibrium binding data were plotted, and KDs for 1:1 Langmuir binding were determined.

Setting [5] is: equilibrium binding of soluble recombinant SH2 domain to immobilized biotinylated peptide (~25 RU on streptavidin-coated CM5 chip), 1:1 Langmuir, range, n = 3, read-out: KD (μM) GADS SH2.
[6] abbreviates: fitted equilibrium curve of the experiment shown, 2-fold serial dilutions of GADS SH2 from 35 μM over immobilized peptide, streptavidin background subtracted, read-out: KD, GADS SH2 (Fig. 1A).
The mark [7] stands for this setting: equilibrium binding of soluble recombinant SH2 domain to immobilized biotinylated peptide (~25 RU on streptavidin-coated CM5 chip), 1:1 Langmuir, range, n = 3, read-out: KD (μM) GRB2 SH2.
[8] abbreviates: equilibrium binding of soluble recombinant SH2 domain to immobilized long CD6 peptides (~50 RU), range, n = 3, read-out: KD (μM) (range) GADS SH2.

T3 sequence (P62993 60-152 limits assumed): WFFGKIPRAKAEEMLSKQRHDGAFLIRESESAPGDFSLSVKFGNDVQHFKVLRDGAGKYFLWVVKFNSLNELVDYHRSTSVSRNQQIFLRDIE

Turning to “Biotin-STSSGEWYQNFQPPPQPPSEEQFGCPGSPSPQPDSTDNDD[pY]DDISAA [pY662]”, in assay [1], the dissociation constant (Kd) fell in the range of 0.3 to 2 µM.
Turning to `NC(=O)CC[C@H](NC(=O)[C@H](Cc1ccc(OP(=O)(O)O)cc1)NC(=O)[C@H](Cc1c[nH]c2ccccc12)NC(=O)[C@H](CCC(=O)O)NC(=O)CNC(=O)[C@H](CO)NC(=O)[C@H](CO)NC(=O)CCCC[C@@H]1SC[C@@H]2NC(=O)N[C@@H]21)C(=O)N[C@@H](CC(N)=O)C(=O)N[C@@H](Cc1ccccc1)C(=O)N[C@@H](CCC(N)=O)C(=O)N1CCC[C@H]1C(=O)O` [CD6 pY629] (Biotin-SSGEW[pY]QNFQP-OH), the dissociation constant (Kd) in assay [2] (setting [5]) was 1 to 3 µM; in assay [2] (setting [6]), 1 µM; in assay [3] (setting [7]) it was 2 to 4 µM; in assay [3] (fitted equilibrium curve of the experiment shown, 2-fold serial dilutions of GRB2 SH2 from 106 μM over immobilized peptide, streptavidin background subtracted, read-out: KD, GRB2 SH2 (Fig. 1B)) it was 2 µM; in assay [4], 26 to 58 µM.
Regarding “Biotin-STSSGEW[pY]QNFQPPPQPPSEEQFGCPGSPSPQPDSTDNDD[pY]DDISAA [pY629 pY662]”, the equilibrium dissociation constant (Kd) lay in the range of 0.1 to 2 µM in assay [2] (setting [8]) and 0.3 to 2 µM in assay [1].
For `CSCC[C@H](NC(=O)[C@H](Cc1ccc(OP(=O)(O)O)cc1)NC(=O)[C@H](CC(=O)O)NC(=O)[C@H](CO)NC(=O)[C@H](Cc1c[nH]cn1)NC(=O)[C@H](CC(C)C)NC(=O)[C@H](CC(C)C)NC(=O)CCCC[C@@H]1SC[C@@H]2NC(=O)N[C@@H]21)C(=O)N[C@@H](CC(N)=O)C(=O)N[C@@H](CCSC)C(=O)N[C@H](C(=O)N1CCC[C@H]1C(=O)O)[C@@H](C)O` [CD28 pYMN, reference compound] (Biotin-LLHSD[pY]MNMTP-OH), the Kd in assay [2] (setting [5]) is 2 to 3 µM; in assay [2] (setting [6]), 2 µM; in assay [3] (setting [7]), 2 to 3 µM.
On to “Biotin-STSSGEW[pY]QNFQPPPQPPSEEQFGCPGSPSPQPDSTDNDDYDDISAA [pY629]”, for which the dissociation constant Kd in assay [2] (setting [8]) lay in the range of 0.2 to 0.6 µM. Moreover, the “binding of the SLP-76 SH2 domain” value in assay [1] (long CD6 peptides, data not shown) is listed as “no binding”.

One may read the Kd as the free concentration of one partner at which half of the binding sites on the other are occupied at equilibrium, for simple one-to-one binding.
